Where two headings read alike, the source gives them in different places.
Tests used:
[1] = format: in vivo; conditions: specially selected whole soybean soy sauce
Procedure: (§1) Evaluation results of sweetness of test product compared with control • ∘: Sweetness was enhanced compared to the control. • ◇: Sweetness was similar to that of the control.
Soy sauces were prepared by adding ergothioneine to a commercially available specially selected whole soybean soy sauce (Kikkoman Corporation) to addition concentrations of 10 ppm, 20 ppm, and 50 ppm (EGR10, 20, 50).
A drinking test by a panel of three experts was conducted on the soy sauce to which ERG was added at each concentration (the concentration was not disclosed to the panel), using a soy sauce to which no ergothioneine was added (ERG0) as a control, and the sweetness was sensorially evaluated by a paired comparison test.

[2] = Test 9 (3): paired comparison test of sweetness, 50% starch syrup sample; format: in vivo; conditions: 50% starch syrup samples
Procedure: Samples were prepared by adding ERG to a 50% starch syrup sample of a highly saccharified reduced starch syrup rich in monosaccharide alcohols and disaccharide alcohols (SE 600, Bussan Food Science Co., Ltd.) to the ERG concentrations shown in Table 14 (ERG0 to 10). Pairs combining a control 50% starch syrup sample and a 50% starch syrup sample containing ERG at each concentration were presented, and the panel evaluated which sample of the presented pair was perceived to be sweeter by a paired comparison test.

[3] = format: in vivo
Procedure: as §1
Samples (ERG0 to 10) were prepared by adding ergothioneine to 20% fructose samples to final concentrations of 0.5 ppm, 1 ppm, 3 ppm, 5 ppm, and 10 ppm.
A drinking test by a panel of four experts was conducted on 20% fructose samples to which ERG was added at each concentration (the concentration was not disclosed to the panel), using a 20% fructose sample to which no ergothioneine was added as a control, and sweetness was sensorially evaluated.
In addition, samples (ERG0.5 to 900) were prepared by adding ergothioneine to 20% fructose samples to final concentrations of 0.5 ppm, 5 ppm, 10 ppm, 20 ppm, 40 ppm, 60 ppm, 80 ppm, 100 ppm, 200 ppm, 400 ppm, and 900 ppm.
Pairs combining 20% fructose samples containing different concentrations of ERG (for example, a pair of ERG 20 ppm and 40 ppm) were presented to the expert panel, and the panel evaluated which sample of the presented pair was perceived to be sweeter by a paired comparison test.

[4] = format: in vivo; conditions: 4% sucrose
Procedure: as §1
Samples (ERG5 to 900) were prepared by adding ergothioneine to a 4% sucrose solution to final concentrations of 5 ppm, 20 ppm, 60 ppm, 100 ppm, 400 ppm, and 900 ppm, and a drinking test by an expert panel of four, different from those in Tests 1 and 2, was conducted on the 4% sucrose samples to which ERG was added at each concentration (the concentration was not disclosed to the panel), and sweetness was sensorially evaluated.
Pairs combining the control 4% sucrose sample of Table 3 below and the 4% sucrose sample containing ergothioneine at each concentration were presented to the expert panel, and the panel evaluated which sample of the presented pair was perceived to be sweeter by a paired comparison test.

[5] = format: in vivo; remark: listed apart in the source
Text: as §1
(§2) Pairs combining a control 50% glucose sample to which ergothioneine was not added and a 50% glucose sample containing ergothioneine at each concentration were presented to the expert panel of four, and the panel evaluated which sample of the presented pair was perceived to be sweeter by a paired comparison test.
The same test as in the 50% glucose solution of (1) described above was conducted on a 10% glucose solution using the samples (ERG0 to 20) shown in Table 6.

[6] = format: in vivo; conditions: amazake
Procedure: as §1
1,250 g of white rice was soaked in water overnight, transferred to a colander, and drained for 2 hours. Thereafter, the rice was wrapped in a Tetoron cloth and steamed at 100°C for 40 minutes. The steamed rice was cooled to 45°C, and a seed koji was inoculated. The rice was wrapped in a Pylen cloth, and koji-making was started under the conditions of 35°C and 95% humidity. 19 hours after the start of koji-making, the rice koji was loosened and wrapped again in the Pylen cloth. When the product temperature reached 40°C, the Pylen cloth was spread and the rice koji was leveled. After another 40 hours, the rice koji was well loosened and left to stand again. After 42 hours, the koji was taken out. […]
The sweetness of the amazake was sensorially evaluated by an expert panel consisting of five trained sweetness-sensitive subjects.
Pairs combining amazake containing ERG at different concentrations shown in Table 19 (ERG12 to 345) were presented to the expert panel of five, and the panelists evaluated which sample of the presented pair was perceived to be sweeter by a paired comparison test.

[7] = format: in vivo; conditions: 50% glucose solution
Procedure: as §1
Samples ERG0 to 900 were prepared by adding ergothioneine to 50% glucose samples to final concentrations of 0.5 ppm, 1 ppm, 3 ppm, 5 ppm, 10 ppm, 20 ppm, 60 ppm, 100 ppm, 400 ppm, and 900 ppm (Table 4).
as §2

[8] = format: in vivo; conditions: 50% trehalose samples
Procedure: as §1
In the following Test 9, sensory evaluation was performed by a panel of three experts in the same paired comparison test as in Tests 3, 5, and 7.
Samples were prepared by adding ergothioneine to a 50% trehalose sample to final concentrations of 0.5 ppm, 1 ppm, 3 ppm, 5 ppm, 10 ppm, and 20 ppm (Table 11, ERG0 to 20).
For the 50% trehalose samples to which ERG was added at each concentration (the concentration was not disclosed to the panel), pairs combining a control 50% trehalose sample and a 50% trehalose sample containing ergothioneine at each concentration were presented to the expert panel, and the panel evaluated which sample of the presented pair was perceived to be sweeter by a paired comparison test.

[9] = Test 1: sensory evaluation by expert panel, selection of sucrose sample of equivalent sweetness; format: in vivo; conditions: 2% sucrose sample containing 60 ppm ERG; all the five panelists
Procedure: Sucrose was added to pure water to prepare sucrose samples having six concentrations of 0%, 1%, 1.5%, 2%, 2.5%, and 3%; and as a seventh sample, a sample in which purified ergothioneine (purity: 99.5% or more, Tetrahedron) was added to 2% sucrose to a final concentration of 60 ppm was prepared.
The sweetness was evaluated by a sensory evaluation by an expert panel consisting of five trained sweetness-sensitive subjects. The panel of five experts was asked to select a sample having an equivalent sweetness from among the 1st to 6th sucrose samples (the concentration was not disclosed to the panel) regarding the sweetness of the 7th 2% sucrose sample containing 60 ppm ERG. After tasting each sample and before tasting the next sample, the mouth was completely rinsed with water at room temperature.

SMILES: C[N+](C)(C)[C@@H](Cc1c[nH]c(=S)[nH]1)C(=O)[O-] [ERG, Ergothioneine]
- ERG added at which all the panelists evaluated that the sweetness was enhanced [1]: ≥ 10 ppm
- ERG added at which all the panelists evaluated that the sweetness was enhanced [2]: ≥ 0.5 ppm
- ERG concentration at which the sweetness-enhancing effect became constant ([3]; 20% fructose): 80 ppm
- ERG added at which all the panelists evaluated that the sweetness was enhanced ([3]; 20% fructose samples): ≥ 0.5 ppm
- ERG having a sweetness-enhancing effect, based on the fructose content ([3]; 20% fructose samples): ≥ 0.0003 % by weight
- ERG concentration at which the sweetness-enhancing effect became constant [4]: 100 ppm
- ERG concentration at which the sweetness-enhancing effect became constant ([5]; 10% glucose): 60 ppm
- ERG added at which all the panelists evaluated that the sweetness was enhanced ([5]; 10% glucose solution): ≥ 0.5 ppm
- ERG having a sweetness-enhancing effect, based on the glucose content ([5]; 10% glucose solution): ≥ 0.0005 % by weight
- ERG content at which all the panelists evaluated that the sweetness was enhanced [6]: ≥ 30 ppm
- ERG content above which the degree of sweetness enhancement did not change ([6]; 345 ppm judged equivalent by a majority of the panelists): 145 ppm
- ERG added at which all the panelists evaluated that the sweetness was enhanced [7]: ≥ 0.5 ppm
- ERG having a sweetness-enhancing effect, based on the glucose content [7]: ≥ 0.0001 % by weight
- ERG added at which all the panelists evaluated that the sweetness was enhanced [8]: ≥ 0.5 ppm
- ERG having a sweetness-enhancing effect, based on the trehalose content [8]: ≥ 0.0001 % by weight
- sucrose solution of equivalent sweetness [9]: 2.5%
